In patent US10221459B2, “Compositions and methods of treating cancer harboring PIKC3A mutations” (Case Western Reserve University, priority 2014, dated 2019):

How the values were obtained:
HCT116 xenograft tumors = assay: Xenograft study, HCT116 (parental cells); assay type: in vivo, mice; settings: for tumor regression: alone or in combination; for combinational effect with AOA: drug combined with AOA (10 mg/kg), HCT116 xenograft
Description: (§1) FIGS. 4(A-D) illustrate plots showing aminooxyacetate (AOA) inhibits xenograft tumor growth of PIK3CA mutant CRCs but not PIK3CA WT CRCs. (A-B) AOA inhibits growth of xenograft formed by PIK3CA mutant clones but not PIK3CA WT clones. (A) Clones derived from HCT116 cells; (B) Clones derived from DLD1. (C) AOA inhibits growth of xenograft tumors formed by four CRC cell lines harboring PIK3CA mutations. […] N=5 mice in each experimental group. Data are presented as mean±SEM.
FIGS. 10(A-B) illustrate plots showing AOA synergizes with 5-FU to inhibit growth of HCT116 xenograft tumors.
FIGS. 12(A-B) illustrate images and a plot showing the combination of CB-839 and 5-FU shrinks HCT116 xenograft tumors.
(§2) Animal experiments were approved by the Case Western Reserve University Animal Care and Use Committee. As described in, 3 million cells were injected subcutaneously into the flanks of 4 to 6-week-old female athymic nude mice. Mice were randomly assigned into treatment groups (5 mice/group). When average tumor volume reached 100 mm3, mice were treated with vehicle control, 5 mg/kg or 10 mg/kg of AOA every day per IP (intraperitoneal) injection. Tumor volumes were measured with an electronic caliper and calculated as length×width^2/2.

[1] = tested on: HCT116 PIK3CA mutant and WT clones; assay: Growth inhibition in tissue culture, HCT116 PIK3CA mutant vs WT clones; assay type: cell-based; settings: for sensitivity to growth inhibition, PIK3CA-/mut vs PIK3CA WT/- cells: HCT116, various doses
Description: (§3) FIGS. 9(A-C) illustrate graphs and an immunoblot showing aminooxyacetate (AOA) inhibits PIK3CA mutant tumor growth. (A) IC50 of AOA in HCT116 and DLD1 PIK3CA WT and mutant clones. (B) Body weights of the mice with xenograft established from the indicated CRC cells before and after AOA treatment. N=5 mice in each group. (C) Western blot analyses of GPT2 protein levels in the indicated cell lines.
(§4) To test if PIK3CA mutations render cancer cell sensitive to these inhibitors, we treated PIK3CA-/mut, PIK3CA WT/-HCT116 and DLD1 colon cancer cells with various doses of EGCG and BPTES.

[2] = tested on: DLD1 PIK3CA mutant and WT clones; assay: Growth inhibition in tissue culture, DLD1 PIK3CA mutant vs WT clones; assay type: cell-based; settings: for sensitivity to growth inhibition, PIK3CA-/mut vs PIK3CA WT/- cells: DLD1, various doses
Description: as §3, §4

[3] = tested on: HCT116 PIK3CA mutant clone xenograft; assay: Xenograft study, HCT116 PIK3CA mutant clone; assay type: in vivo; settings: HCT116 PIK3CA mutant clone in nude mice; AOA 5 or 10 mg/kg every day IP
Description: as §1, §2

[4] = tested on: DLD1 PIK3CA mutant clone xenograft; assay: Xenograft study, DLD1 PIK3CA mutant clone; assay type: in vivo; settings: DLD1 PIK3CA mutant clone in nude mice; AOA 5 or 10 mg/kg every day IP
Description: as §1, §2

[5] = tested on: HCT116 PIK3CA WT clone xenograft; assay: Xenograft study, HCT116 PIK3CA WT clone; assay type: in vivo; settings: isogenic HCT116 PIK3CA WT clone in nude mice; AOA every day IP
Description: as §1, §2

[6] = tested on: DLD1 PIK3CA WT clone xenograft; assay: Xenograft study, DLD1 PIK3CA WT clone; assay type: in vivo; settings: isogenic DLD1 PIK3CA WT clone in nude mice; AOA every day IP
Description: as §1, §2

DLD1 xenograft tumors = assay: Xenograft study, DLD1 (parental cells); assay type: in vivo, mice; settings: DLD1 parental cells (PIK3CA mutant); AOA every day IP
Description: as §1, §2

RKO xenograft tumors = assay: Xenograft study, RKO; assay type: in vivo, mice; settings: RKO (PIK3CA mutant); AOA every day IP
Description: as §1, §2

HT29 xenograft tumors = assay: Xenograft study, HT29; assay type: in vivo, mice; settings: HT29 (PIK3CA mutant); AOA every day IP
Description: as §1, §2

SW480 xenograft tumors = assay: Xenograft study, SW480; assay type: in vivo, mice; settings: SW480 (WT PIK3CA); AOA every day IP
Description: as §1, §2

LOVO xenograft tumors = assay: Xenograft study, LOVO; assay type: in vivo, mice; settings: LOVO (WT PIK3CA); AOA every day IP
Description: as §1, §2

[7] = Body weights of xenograft mice before and after AOA treatment; assay type: in vivo; settings: xenograft mice treated with AOA
Description: as §3, §2

Recombinant GPT2 = target: T1, Recombinant GPT2 (Homo sapiens, UniProt Q8TD30); assay: GPT2 enzymatic assay (colorimetric pyruvate detection); assay type: biochemical; settings: recombinant GPT2 mixed with α-KG and alanine; read-out: IC50 of AOA to GPT2
T1 sequence (Q8TD30 1-523): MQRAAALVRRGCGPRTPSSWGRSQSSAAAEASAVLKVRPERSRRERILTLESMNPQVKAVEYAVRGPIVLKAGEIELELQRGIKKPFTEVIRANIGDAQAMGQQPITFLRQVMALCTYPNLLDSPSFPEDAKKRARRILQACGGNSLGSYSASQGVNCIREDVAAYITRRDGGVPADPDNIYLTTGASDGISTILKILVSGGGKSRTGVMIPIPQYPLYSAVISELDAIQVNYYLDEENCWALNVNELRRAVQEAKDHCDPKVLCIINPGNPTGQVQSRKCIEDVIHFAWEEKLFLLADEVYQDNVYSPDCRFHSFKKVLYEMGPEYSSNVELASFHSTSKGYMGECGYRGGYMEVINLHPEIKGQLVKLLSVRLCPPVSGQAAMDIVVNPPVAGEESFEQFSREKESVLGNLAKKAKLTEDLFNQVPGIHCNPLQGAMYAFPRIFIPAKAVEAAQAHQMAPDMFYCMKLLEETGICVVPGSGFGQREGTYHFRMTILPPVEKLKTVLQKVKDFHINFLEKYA
Description: (§5) FIGS. 11(A-C) illustrate plots and graph showing (A) enzyme kinetics of GPT2. Recombinant GPT2 was mixed with α-KG and alanine. The product pyruvate was detected by a colorimetric assay. (B) IC50 of AOA to GPT2. (C) Relative amounts of α-KG. Xenograft tumors were treated with 10 mg/kg of AOA or vehicle. α-KG in a untreated tumor was set as 100%.
(§6) However, AOA is pan-transaminase inhibitor.

GPT activity = GPT activity in treated xenograft tumors assayed by amounts of α-KG; assay type: in vivo, mice; settings: Mus musculus, AOA 10 mg/kg
Description: as §5, §6

[8] = tested on: ATF4 protein levels in the HCT116 PIK3CA mutant clone; assay: ATF4 protein levels after inhibitor exposure (immunoblot); assay type: cell-based; settings: Western blot (FIG. 6C)
Description: Ubiquitination of endogenous ATF4 (A). Ubiquitination of ectopically expressed Flag-tagged ATF4 and HA-tagged ubiquitin (B).
Cells were lysed in RIPA buffer [10 mM Tris (pH 7.4), 150 mM NaCl, 5 mM EDTA (pH 8.0), 0.1% SDS, 1% Triton-X100, 1 mM DTT, 1 mM PMSF, complete Protease Inhibitor Cocktail tablet (Roche); supplemented with phosphatase inhibitors (1 mM Na3VO4, 50 mM NaF, 1 mM β-glycerophosphate, 20 mM sodium pyrophosphate)]. Lysates were then cleared by centrifugation at 14,000 rpm for 10 min and protein concentration in supernatants was determined by the BCA protein assay kit (Pierce). Equal amounts of total protein were used for immunoblotting. For immunoprecipitation (IP), cells were lysed as mentioned above. Cleaned cell lysate incubated with antibody for one hour, and then protein A and/or protein G for one hour. Protein A/G beads were washed with lysis buffer three times, and then boiled with SDS-loading buffer followed with immunoblotting.

[9] = HCT116 (PIK3CA mutant CRC) xenograft
[10] = single agent, HCT116 (PIK3CA mutant CRC) xenograft

For `O=c1[nH]cc(F)c(=O)[nH]1` [5-FU, 5-fluorouracil], the tumor regression (HCT116 xenograft tumors; [9]) was “neither induced tumor regression” and the xenograft tumor growth (HCT116 xenograft tumors; [10]) was “inhibited tumor growth to various extents”.
In the case of `NOCC(=O)O` [AOA, aminooxyacetate], the “sensitivity to AOA treatment, PIK3CA mutant clones vs WT clones” value ([1]; HCT116 clones) is reported as “more sensitive to AOA treatment than the WT clones”, the “sensitivity to AOA treatment, PIK3CA mutant clones vs WT clones” value ([2]; DLD1 clones) is reported as “more sensitive to AOA treatment than the WT clones” and the xenograft tumor growth [3] is reported as “significantly inhibited the growth”. The xenograft tumor growth [4] was “significantly inhibited the growth”, the xenograft tumor growth [5] was “had no effect” and the xenograft tumor growth [6] was “had no effect”. For the same molecule, the xenograft tumor growth (HCT116 xenograft tumors; HCT116 parental cells (PIK3CA mutant), AOA every day IP) was “inhibited xenograft tumor growth”, the xenograft tumor growth (DLD1 xenograft tumors) was “inhibited xenograft tumor growth” and the xenograft tumor growth (RKO xenograft tumors) was “inhibited xenograft tumor growth”. For the same molecule, the xenograft tumor growth (HT29 xenograft tumors) was “inhibited xenograft tumor growth”, the xenograft tumor growth (SW480 xenograft tumors) was “had no effect on xenograft tumor growth” and the xenograft tumor growth (LOVO xenograft tumors) was “had no effect on xenograft tumor growth”. The “weight loss of treated mice” value [7] was “No weight loss was observed”, the IC50 (Recombinant GPT2) was 980 nM and the inhibition at 10 mg/kg (GPT activity) was ~30%.
For `CC(C)CCN1c2nc(Nc3cc(F)c(O)c(F)c3)ncc2N(C)C(=O)C1C` (stereo not shown) [BI-D1870], the ATF4 protein levels [8] was “reduced ATF4 protein levels”.
With `O=C(Cc1ccccc1)Nc1nnc(CCSCCc2nnc(NC(=O)Cc3ccccc3)s2)s1` [BPTES] the “sensitivity to growth inhibition, PIK3CA-/mut vs PIK3CA WT/- cells” value [1] was “more sensitive to growth inhibition” and the “sensitivity to growth inhibition, PIK3CA-/mut vs PIK3CA WT/- cells” value [2] was “more sensitive to growth inhibition”.
With `O=C(Cc1cccc(OC(F)(F)F)c1)Nc1ccc(CCCCc2nnc(NC(=O)Cc3ccccn3)s2)nn1` [CB-839] the tumor regression (HCT116 xenograft tumors; [9]) was “neither induced tumor regression” and the xenograft tumor growth (HCT116 xenograft tumors; [10]) was “inhibited tumor growth to various extents”.
In the case of `Cn1c(=O)n(-c2ccc(C(C)(C)C#N)cc2)c2c3cc(-c4cnc5ccccc5c4)ccc3ncc21` [DEZ235], the ATF4 protein levels [8] is reported as “reduced ATF4 protein levels”.
For `O=C(O[C@@H]1Cc2c(O)cc(O)cc2O[C@@H]1c1cc(O)c(O)c(O)c1)c1cc(O)c(O)c(O)c1` [EGCG, Epigallocatechin gallate], the “sensitivity to growth inhibition, PIK3CA-/mut vs PIK3CA WT/- cells” value [1] was “more sensitive to growth inhibition” and the “sensitivity to growth inhibition, PIK3CA-/mut vs PIK3CA WT/- cells” value [2] was “more sensitive to growth inhibition”.
For `Cc1ccc(-c2c(C(=O)CF)n(CCCO)c3ncnc(N)c23)cc1` [FMK], the ATF4 protein levels [8] was “reduced ATF4 protein levels”.
In the case of `CCn1c(-c2nonc2N)nc2c(C#CC(C)(C)O)ncc(OC[C@H]3CCCNC3)c21` [GSK690693], the ATF4 protein levels [8] is reported as “neither an AKT inhibitor (GSK690693) nor an inhibitor (CHIR-99021) of GSK3β(a known downstream effector of AKT) had any effect on ATF4 protein levels”.
For `CNc1nc(-c2ccc3c(N)n[nH]c3c2)cc(N2C[C@@H](C(=O)NC3CCCCC3)CC[C@H]2C)n1` [GSK2334470], the ATF4 protein levels [8] was “reduced ATF4 protein levels”.
In the case of `CCc1c2c(nc3ccc(OC(=O)N4CCC(N5CCCCC5)CC4)cc13)-c1cc3c(c(=O)n1C2)COC(=O)[C@]3(O)CC` [irinotecan], the “combinational effect with AOA” value (HCT116 xenograft tumors) is reported as “none of the other drug showed any combinational effect with AOA”.
For `O=C1[O][Pt]2([NH][C@@H]3CCCC[C@H]3[NH]2)[O]C1=O` [oxaliplatin], the “combinational effect with AOA” value (HCT116 xenograft tumors) was “none of the other drug showed any combinational effect with AOA”.
For `CNC(=O)c1cc(Oc2ccc(NC(=O)Nc3ccc(Cl)c(C(F)(F)F)c3)c(F)c2)ccn1` [regorafenib], the “combinational effect with AOA” value (HCT116 xenograft tumors) was “none of the other drug showed any combinational effect with AOA”.
